Data taken from patent publication US5405760A, “Process for producing recombinant McrBC endonuclease and cleavage of methylated DNA” (New England Biolabs, Inc., priority 1992, dated 1995).
Like-named read-outs stand apart in the source and are kept apart here.

Experiments:
[1] = biological target: T1, McrBC (Escherichia coli, UniProt P15005); test: McrBC cleavage of pBR322.AluI with titration of nucleotides; assay type: biochemical; conditions: for inhibition of McrBC reaction: in the presence of GTP (0.5 mM), analogue 5.0 to 0.04 mM; for support of cleavage of the substrate by nucleotide: nucleotides tested at 1 mM
T1 construct: made in house; host or cells: Escherichia coli BL21(DE3)/pER273 (McrBL) and BL21(DE3)/pER276 (McrC)
T1 sequence (P15005 1-459): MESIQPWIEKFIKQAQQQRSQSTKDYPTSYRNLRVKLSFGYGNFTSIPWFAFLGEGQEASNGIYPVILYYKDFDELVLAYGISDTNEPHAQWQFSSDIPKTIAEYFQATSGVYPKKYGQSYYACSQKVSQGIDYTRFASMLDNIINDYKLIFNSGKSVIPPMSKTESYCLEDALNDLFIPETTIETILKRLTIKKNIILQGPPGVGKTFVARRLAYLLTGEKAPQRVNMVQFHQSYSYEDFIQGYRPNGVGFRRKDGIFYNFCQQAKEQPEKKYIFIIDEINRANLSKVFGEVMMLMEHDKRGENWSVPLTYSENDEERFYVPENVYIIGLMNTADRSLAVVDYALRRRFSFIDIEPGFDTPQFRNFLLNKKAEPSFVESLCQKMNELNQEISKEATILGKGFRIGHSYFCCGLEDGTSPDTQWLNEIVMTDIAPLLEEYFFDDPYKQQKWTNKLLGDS
Protocol: The optimal buffer composition for both components of McrBC tested was 10 mM Tris-Cl, 10 mM magnesium chloride, 1 mM GTP (pH 7.5 at 25° C.).
McrBC activity depends on the presence of GTP. […] McrBL Fraction IV and McrC Fraction Va (EXAMPLE I), were used, such that each reaction in each series contained 8 pmol McrBL, 8 pmol of McrC (combined activity on the same day of 5 units) and 0.07 pmol of pBR322.AluI in the presence of decreasing concentrations of nucleotides. Mixtures were made up without McrBL and without nucleotide; nucleotide was added to the first tube in the series; the samples were serially diluted in a manner similar to that described in EXAMPLE I and II; and reactions were begun by addition of McrBL and transfer to 37° C.

[2] = Properties of the McrBC cleavage reaction (pH, ratio of components); assay type: biochemical; conditions: higher or lower ratios reduce cleavage activity
Excerpt: (a) pH optimum: Activity is detectable when the pH of the reaction is lowered to about 5.8.
Higher or lower ratios reduce cleavage activity.

[3] = test system: McrBC (chromosomal wild-type operon) (Escherichia coli K-12); test: cell_activity; conditions: methylated by M.HaeII in vivo; in vivo restriction; abolished by McrBS plasmid
[4] = pH 7.5, read-out: relative activity

Nc1ncnc2c1ncn2[C@@H]1O[C@H](COP(=O)(O)OP(=O)(O)NP(=O)(O)O)[C@@H](O)[C@H]1O [AMP-PNP]
inhibition of McrBC reaction [1]: did not inhibit McrBC
inhibition of McrBC at high concentrations ([1]; near 10 mM): partial inhibition

Nc1ncnc2c1ncn2[C@@H]1O[C@H](COP(=O)(O)OP(=O)(O)OP(O)(O)=S)[C@@H](O)[C@H]1O [ATP-gamma-S]
inhibition of McrBC reaction [1]: did not inhibit the enzyme

Nc1ncnc2c1ncn2[C@@H]1O[C@H](COP(=O)(O)OP(=O)(O)OP(=O)(O)O)[C@@H](O)[C@H]1O [ATP]
concentration at which inhibition of McrBC activity began ([1]; 0.5 mM GTP (equimolar)): 0.5 mM
inhibition of McrBC reaction [1]: inhibited the reaction
activity at 620 µM [1, 4]: 25%
activity at 1250 µM [1, 4]: < 10%
activity at 2500 µM [1, 4]: < 1%

Nc1nc2c(ncn2[C@@H]2O[C@H](COP(=O)(O)OP(=O)(O)O)[C@@H](O)[C@H]2O)c(=O)[nH]1 [GDP]
support of cleavage of the substrate by nucleotide [1]: Neither GDP or GMP supported cleavage

Nc1nc2c(ncn2[C@@H]2O[C@H](COP(=O)(O)OP(=O)(O)NP(=O)(O)O)[C@@H](O)[C@H]2O)c(=O)[nH]1 [GMP-PNP]
inhibition of the GTP-supported reaction ([1]; 5 mM analogue, 0.5 mM GTP): partial inhibition
activity at 1250 µM ([1]; pH 7.5, 0.5 mM GTP and 1.25 mM GMP-PNP, read-out: relative activity): 50%
activity at 5000 µM ([1]; pH 7.5, 0.5 mM GTP and 5 mM GMP-PNP, read-out: relative activity): < 10%

Nc1nc2c(ncn2[C@@H]2O[C@H](COP(=O)(O)O)[C@@H](O)[C@H]2O)c(=O)[nH]1 [GMP]
support of cleavage of the substrate by nucleotide [1]: Neither GDP or GMP supported cleavage

Nc1nc2c(ncn2[C@@H]2O[C@H](COP(=O)(O)OP(=O)(O)OP(O)(O)=S)[C@@H](O)[C@H]2O)c(=O)[nH]1 [GTP-gamma-S]
relative activity ([1]; 0.5 mM GTP and as little as 0.04 mM GTP-gamma-S): no activity was detectable
inhibition of McrBC reaction [1]: completely inhibit

Nc1nc2c(ncn2[C@@H]2O[C@H](COP(=O)(O)OP(=O)(O)OP(=O)(O)O)[C@@H](O)[C@H]2O)c(=O)[nH]1 [GTP]
activity at 620 µM ([1]; 0.62 mM GTP, 10 mM Tris-Cl, 10 mM magnesium chloride, pH 7.5, read-out: relative activity): 100%
support of the reaction by GTP alone ([1]; 2.5 mM GTP): supported the reaction normally
effect of high levels of GTP on the enzyme ([1]; 5 mM GTP): inhibit the enzyme
GTP concentration at which cleavage can be detected ([1]; lane h, lowest concentration): 40 nM
activity at 40 µM ([1]; pH 7.5, 0.04 mM GTP, same buffer, read-out: relative activity): ≤ 10%
activity at 310 µM ([1]; pH 7.5, 0.31 mM GTP, same buffer, read-out: relative activity): 50%

McrB: large polypeptide product of the mcrB gene, component of McrBC
Optimal ratio of McrB to McrC [2]: between one and ten molecules of McrB per molecule of McrC

phage lambda modified by M.HaeII
activity (fold reduction in plaques) [3]: 33

B1: McrC: component of McrBC endonuclease, product of the mcrC gene (protein, UniProt P15006 1-348, looked up)
Type IV methyl-directed …: MEQPVIPVRNIYYMLTYAWGYLQEIKQANLEAIPGNNLLDILGYVLNKGVLQLSRRGLELDYNPNTEIIPGIKGRIEFAKTIRGFHLNHGKTVSTFDMLNEDTLANRIIKSTLAILIKHEKLNSTIRDEARSLYRKLPGISTLHLTPQHFSYLNGGKNTRYYKFVISVCKFIVNNSIPGQNKGHYRFYDFERNEKEMSLLYQKFLYEFCRRELTSANTTRSYLKWDASSISDQSLNLLPRMETDITIRSSEKILIVDAKYYKSIFSRRMGTEKFHSQNLYQLMNYLWSLKPENGENIGGLLIYPHVDTAVKHRYKINGFDIGLCTVNLGQEWPCIHQELLDIFDEYLK
Optimal ratio of McrC to sites [2]: between one and six molecules of McrC per cleavable site
